Earlier results on one molecule are cited in paper PMC12736120, “First-in-Human Phase I Clinical Trial of SLC-391, a Novel and Selective AXL Inhibitor, in Patients with Advanced Solid Tumours” (Pharmaceuticals, 2025).

Data set [1] concerns TYRO3. The settings on record: stated in the Introduction, no reference given; read-out: IC50 against TYRO3; cited from earlier work.
In data set [2] the test system is MER. The settings on record: stated in the Introduction, no reference given; read-out: IC50 against MER; cited from earlier work.

Molecules are shown by their SMILES.

As to `Nc1ncc(-c2cnn(C3CCNCC3)c2)cc1-c1nnc(CC2CC2)o1` [SLC-391, 3-(5-[cyclopropylmethyl]-1,3,4-oxadiazol-2-yl)-5-(1-[piperidin-4-yl]-1H-pyrazol-4-yl)-pyridin-2-amine], the figures for the IC50 in data set [1] and in data set [2] were 0.0423 µM and 0.044 µM, respectively.

By IC50 is commonly meant the concentration that inhibits the measured activity by half.
